In patent US9447122B2, “Arginase inhibitors and methods of use thereof” (AstraZeneca AB, priority 2010, dated 2016):
Where a name gives a salt, the structure may show the parent alone. Read-outs that look alike come from different tables or passages of the source.

Assays:
human arginase I = target: T1, human arginase I (Homo sapiens, UniProt P05089); experiment: Arginase inhibition, QuantiChrom colorimetric urea assay, IC50 converted to Ki; type: biochemical
T1 sequence (P05089 1-322): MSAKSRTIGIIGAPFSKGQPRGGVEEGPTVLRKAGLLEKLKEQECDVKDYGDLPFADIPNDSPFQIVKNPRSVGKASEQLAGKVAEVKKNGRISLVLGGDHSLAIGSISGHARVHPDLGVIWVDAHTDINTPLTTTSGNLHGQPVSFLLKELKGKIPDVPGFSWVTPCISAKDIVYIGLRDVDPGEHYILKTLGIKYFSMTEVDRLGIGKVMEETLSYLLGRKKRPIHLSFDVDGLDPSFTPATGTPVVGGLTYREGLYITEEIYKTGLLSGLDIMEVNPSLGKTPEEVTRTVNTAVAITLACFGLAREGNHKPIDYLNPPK
Procedure: (§1) For some compounds, their inhibitory potency at pH 7.5 was compared to the inhibitory potency of ABH at pH 7.5.
(§2) Quantitative determination of arginase activity was performed in a 96-well format by a colorimetric method using the QuantiChrom™ Arginase Assay Kit available from BioAssay Systems (Hayward, Calif., Catalog No. DARG-200) according to the manufacturer's protocol. Modifications were made to reagent quantities to suit the assaying of a highly purified sample.
(§3) The intensity of the color was directly proportional to the arginase activity in the sample.
(§4) The rate of urea production was measured in the presence of twelve different concentrations of each potential inhibitor compound. In a typical assay, seven different compounds were tested relative to a control inhibitor (e.g. ABH) against one enzyme (either human ArgI or human ArgII) at a particular pH (either 9.5 or 7.5). The pH of the solution was controlled using an appropriate pH buffering compound at 60 mM concentrations; for example, 60 mM glycine (pH 9.5) or 60 mM HEPES (pH 7.5). The half maximal inhibitory concentration (IC50) was determined by constructing a dose-response curve.

human arginase II = target: T2, human arginase II (Homo sapiens, UniProt P78540); experiment: as above; type: biochemical
T2 sequence (P78540 23-354): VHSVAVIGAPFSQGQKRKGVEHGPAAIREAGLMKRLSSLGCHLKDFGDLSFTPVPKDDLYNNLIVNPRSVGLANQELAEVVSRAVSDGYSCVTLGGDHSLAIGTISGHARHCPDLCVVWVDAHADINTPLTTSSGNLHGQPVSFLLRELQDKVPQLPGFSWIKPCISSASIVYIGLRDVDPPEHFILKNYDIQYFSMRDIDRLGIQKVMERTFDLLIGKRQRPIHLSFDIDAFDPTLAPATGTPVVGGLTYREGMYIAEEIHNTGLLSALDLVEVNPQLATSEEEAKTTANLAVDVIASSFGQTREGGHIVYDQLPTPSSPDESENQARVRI
Procedure: as §1, §2, §3, §4

Arg I and/or Arg II = experiment: pH effect: inhibitory potency at pH 7.5 compared with pH 9.5; type: biochemical, human; conditions: for increased potency for at least one isozyme: Table 2, pH 7.5 vs pH 9.5; for potency at pH 7.5 as compared to pH 9.5, arginases: both or at least one of the arginases
Procedure: as §1
as §4, with “curve. As IC50 values are dependent upon the measurement conditions, the IC50 values were converted to the inhibitor binding affinity (K1) using the Cheng-Prusoff equation and the affinity constant (Km) of L-arginine which was estimated with the same activity assay (see, e.g., Cheng et al., 1973, Biochem. Pharmacol. 22:3099-108).” for “curve.”

Rats = experiment: Myocardial ischemia-reperfusion injury, infarct size IA/AR; type: in vivo; conditions: rat, 2 hrs reperfusion
Procedure: Rats were intraperitoneally (IP) anesthetized to effect with pentobarbital (˜50 mg/kg), shaved and positioned in dorsal recumbence, intubated and ventilated (˜90 breaths/min, ˜2.5 mL tidal volume with 95% O2/5% CO2) with an adjustable small animal ventilator (Harvard Apparatus). Anesthesia was maintained with a continuous sodium pentobarbital infusion (to effect, ˜3 to 5 mg/kg/h, IV) until completion of the study via an indwelling catheter placed in a peripheral vein (e.g., femoral). Body temperature was continuously monitored throughout the duration of the surgical/experimental procedures via a rectal probe, and was maintained within the physiological range via a heated temperature-controlled (closed-loop) small animal surgical table/control unit (Vestavia Scientific).
Subsequently, transthoracic needle electrodes forming a single-lead ECG (e.g., lead II) were placed. Once a surgical plane of anesthesia had been reached, a femoral artery was isolated, dissected free from the surrounding tissue, and cannulated with a 2F high-fidelity micromanometer catheter (Millar Instruments). In order to record arterial/systemic pressures, this catheter was advanced towards the abdominal aorta. An in-dwelling catheter was also placed in a vein (i.e., jugular) for administration of the test article/vehicle, or stains (see below).
Finally, the animals were placed in right-lateral recumbence and the heart was exposed by a left-side thoracotomy/pericardiotomy. Ligatures were loosely placed (using a taper-point needle) around the proximal section of the left anterior descending artery (LAD). Tightening of these snares (via small pieces of polyethylene tubing) rendered a portion of myocardium temporarily ischemic.
Following surgical preparation, the animals were allowed to reach hemodynamic stability (for approximately 15 min), and baseline data was collected. It should be noted that in order to ensure experimental/data homogeneity, all animals must have satisfied the following entry criteria: heart rate >320 bpm and mean arterial pressure >80 mmHg. The anesthetic regime may be adjusted in order to ensure proper anesthesia/analgesia and to satisfy such inclusion criteria.
After hemodynamic stabilization and baseline measurements, the animals were treated with either vehicle or test article delivered as an intravenous bolus. Subsequently (approximately 15 min post-dosing), the animals were subjected to an acute 30 min ischemic insult by tightening of the LAD coronary artery snare. Myocardial ischemia was visually confirmed both by the appearance of cyanotic changes in distal distributions of the LAD as well as by the onset of electrocardiographic changes. After approximately 30 min of induced ischemia, the coronary snares were released and the previously ischemic myocardium was reperfused for up to 2 hrs. Treatments were not administered during either the ischemia and/or reperfusion periods. It should also be noted that in order to minimize any possible confounding effects on indices of myocardial injury, non-self-resolving malignant arrhythmias/rhythms (e.g., ventricular tachycardia/fibrillation) developing during reperfusion were considered terminal (i.e., the experiment was terminated prematurely).
At the completion of the protocol, irreversible myocardial injury (i.e., infarction) resulting from the I/R insult was evaluated. […]

prostate cancer = conditions: cited from earlier work
breast cancer = conditions: cited from earlier work
arginase = target: T3, arginase (Homo sapiens, UniProt P78540); conditions: literature; cited from earlier work
T3 sequence (P78540 23-354): T2 sequence (P78540 23-354)

[1] = test system: opossum internal anal sphincter muscle; conditions: cited from earlier work
guinea pigs = conditions: nebulizer treatment, allergic asthma model; cited from earlier work
[2] = test system: rabbit and human penile corpus cavernosum; conditions: rabbit and human tissue; cited from earlier work
live male rabbits = conditions: cited from earlier work
[3] = test system: corpus cavernosum of the diabetic person; conditions: ex vivo; cited from earlier work
female rabbits = conditions: cited from earlier work
[4] = test system: animal model of multiple sclerosis (experimental autoimmune encephalomyelitis); conditions: cited from earlier work
[5] = Table 2, pH 7.5, read-out: human arginase I pH 7.5, Ki assigned value
[6] = Table 2, pH 9.5, read-out: human arginase I pH 9.5, Ki assigned value
[7] = Table 2, pH 7.5, read-out: human arginase II pH 7.5, Ki assigned value
[8] = Table 2, pH 9.5, read-out: human arginase II pH 9.5, Ki assigned value
[9] = 1 mg/kg iv bolus about 15 min before 30 min ischemia
[10] = 3 mg/kg iv bolus about 15 min before 30 min ischemia
[11] = Table 3, pH 7.5, read-out: human Arginase I pH 7.5, Ki assigned value
[12] = Table 3, pH 9.5, read-out: human Arginase I pH 9.5, Ki assigned value
[13] = Table 3, pH 7.5, read-out: human Arginase II pH 7.5, Ki assigned value
[14] = Table 3, pH 9.5, read-out: human Arginase II pH 9.5, Ki assigned value

SMILES | Ki (human arginase I; [5]) | Ki (human arginase I; [6]) | Ki (human arginase II; [7]) | Ki (human arginase II; [8]) | increased potency for at least one isozyme (Arg I and/or Arg II) | potency at pH 7.5 as compared to pH 9.5, arginases (Arg I and/or Arg II) | Ki (human arginase I; [11]) | Ki (human arginase I; [12]) | Ki (human arginase II; [13]) | Ki (human arginase II; [14]) | other results
NC(CCCCB(O)O)(CCCC1CCN(Cc2ccc(Cl)c(Cl)c2)CC1)C(=O)O (centres unmarked) [Comparative Example 2, reference compound] | 101 to 250 nM | 11 to 50 nM | 101 to 250 nM | 11 to 50 nM | no ^b | decreased potencies | – | – | – | – | –
NC(CCCCB(O)O)(CCCC1CCN(Cc2ccc(F)cc2)CC1)C(=O)O (centres unmarked) [Comparative Example 3, reference compound] | 251 to 400 nM | 11 to 50 nM | 251 to 400 nM | 11 to 50 nM | no ^b | decreased potencies | – | – | – | – | –
NC(CCCCB(O)O)(CCCN1CCN(Cc2ccc(Cl)c(Cl)c2)CC1)C(=O)O (centres unmarked) [Example 8] | < 10 nM | 11 to 50 nM | 11 to 50 nM | 11 to 50 nM | – | – | – | – | – | – | Mean IA/AR (%) (Rats; [9]): 32%; Mean IA/AR (%) (Rats; [10]): 29%
NC(CCCCB(O)O)(CCCN1CCN(C(=O)c2ccc(Cl)c(Cl)c2)CC1)C(=O)O (centres unmarked) [Example 129, 2-amino-6-borono-(3-(4-(3,4-dichlorobenzoyl)piperazine-1-yl)propyl)hexanoic acid] | – | – | – | – | – | – | 11 to 50 nM | 51 to 100 nM | 251 to 400 nM | 51 to 100 nM | selectivity for arginase I over arginase II (Arg I and/or Arg II; at pH 7.5 / lower pHs): selectivity for arginase I over arginase II
CS(=O)(=O)c1ccc(CN2CCN(CCCC(N)(CCCCB(O)O)C(=O)O)CC2)cc1 (centres unmarked) [Example 10] | – | – | – | – | – | – | < 10 nM | 11 to 50 nM | 11 to 50 nM | 11 to 50 nM | Mean IA/AR (%) (Rats; [9]): 24%; Mean IA/AR (%) (Rats; [10]): 22%; Mean IA/AR (%) (Rats; 10 mg/kg iv bolus about 15 min before 30 min ischemia): 17%
NC(CCCCB(O)O)(CCCC1CCNCC1)C(=O)O (centres unmarked) [Comparative Example 1, reference compound] | 101 to 250 nM | 11 to 50 nM | > 400 nM | < 10 nM | no ^b | lower potencies | – | – | – | – | –
N=C(NO)NCCC[C@H](N)C(=O)O [N-hydroxy-L-arginine, N^Ω-hydroxy-L-arginine] | – | – | – | – | – | – | – | – | – | – | tumor immunotherapy (prostate cancer): facilitates tumor immunotherapy; cell proliferation and apoptosis (breast cancer): inhibits cell proliferation and induces apoptosis
NC(CCCCB(O)O)(CCCN1CCNCC1)C(=O)O (centres unmarked) [Comparative Example 4, 2-Amino-6-borono-2-(3-(piperazine-1-yl)propyl)hexanoic acid trifluoroacetate salt, reference compound] | 11 to 50 nM | 51 to 100 nM | > 400 nM | 11 to 50 nM | yes ^a | – | – | – | – | – | change of human arginase I inhibitory potency (human arginase I; pH decreased from 9.5 to 7.5): increased potency
NC(CCCCB(O)O)(CCCN1CCC2(CC1)C(=O)NCN2c1ccccc1)C(=O)O (centres unmarked) [Example 31] | – | – | – | – | – | – | < 10 nM | 11 to 50 nM | < 10 nM | 51 to 100 nM | –
NC(CCCCB(O)O)(CCCn1cnc2ccccc21)C(=O)O (centres unmarked) [Example 116] | – | – | – | – | – | – | 251 to 400 nM | 11 to 50 nM | 11 to 50 nM | 11 to 50 nM | –
CN(C)CCNCCCC(N)(CCCCB(O)O)C(=O)O (centres unmarked) [Example 89] | – | – | – | – | – | – | < 10 nM | < 10 nM | < 10 nM | 11 to 50 nM | –
N[C@@H](CCCCB(O)O)C(=O)O [ABH, 2(S)-amino-6-boronohexanoic acid] | 51 to 100 nM | 11 to 50 nM | 101 to 250 nM | 11 to 50 nM | no ^b | decrease in inhibitory potency | – | – | – | – | inhibitory potency at pH 7.5 vs pH 9.5 (arginase): much lower at pH 7.5 than at pH 9.5; relaxation of internal anal sphincter muscle [1]: relax this muscle; airway hyperresponsiveness (guinea pigs): prevents airway hyperresponsiveness; NO-dependent relaxation of corpus cavernosum [2]: enhances the NO-dependent relaxation; erectile response (live male rabbits): enhances the erectile response; NO biosynthesis [3]: restores NO biosynthesis; engorgement response in the genitalia (female rabbits): enhances the engorgement response; disease score [4]: improves the disease score
NC(CCCCB(O)O)(CCCCN1CCNCC1)C(=O)O (centres unmarked) [Example 93] | – | – | – | – | – | – | 11 to 50 nM | 11 to 50 nM | > 400 nM | 11 to 50 nM | –
